Source: US20030229027A1, “Stabilized natural cannabinoid formulation” (priority 2002, published 2003)
Like-named read-outs stand apart in the source and are kept apart here.

Tests used:
[1] = cited from earlier work; for Glass transition temperature: at dry conditions; for Tg / Tg′: comparison with inulin
[2] = Dynamic vapour sorption (gravimetric sorption analyser); format: physicochemical; settings: after exposure to 90% RH
Description: Water sorption isotherm of freeze dried inulin was measured at ambient pressures and 25° C. using a gravimetric sorption analyser (DVS-1000 Water Sorption Instrument, Surface Measurement Systems Limited, London, UK). The uptake of water by inulin was measured from 0% to 90% RH with steps of 10% RH. The initial sample weight was about 10 mg. It was assumed that equilibrium was reached when the change of weight was less than 0.9 μg during a ten minutes period.
The water sorption of THC was determined according to the procedure described above for inulin. The THC was dissolved in methanol before it was put in the DVS-1000 instrument. During initial exposure to a dry nitrogen flow, the methanol was evaporated. As soon as about 90% of the solvent was evaporated, additional THC solution was added to the sample-cup. This procedure was repeated until 15 mg of pure THC was present in the sample cup. After the evaporation of the last methanol, the relative humidity was increased from 0% to 90% in steps of 10%.

[3] = THC-analysis control experiments (degradation of THC in methanol); format: physicochemical
[4] = Stability (no clouding) of water-alcohol solutions of inulin and THC; format: physicochemical; settings: 0.4% w/v THC
Description: The suitable volume ratio of water/alcohol was investigated by testing the stability of 10% w/v inulin solutions with different ratio's water/alcohol. Inulin was dissolved in different amounts of water (3 to 7 mL). Subsequently different amounts of alcohol were added until a total volume of 10 mL. For THC the same procedure was followed, but now water was added to the alcoholic THC solution. The solution was judged as sufficiently stable if no clouding appeared within the time of processing. For spray drying batches were made which required up to half an hour of spraying. Therefore the solution should be clear for at least that period of time. For freeze drying the solution should be clear until it is frozen. In this case ten minutes is sufficient. Furthermore, it was investigated whether the aqueous inulin solution could be added slowly or should be mixed instantaneously.
The three relevant alcohol's were added to a solution of inulin in water. It was determined for how long the obtained solution stayed clear. After 1 g of inulin was dissolved in 4 mL water, water and/or alcohol was added to a total volume of 10 mL, yielding a 10% w/v solution. The largest concentration of alcohol was thus obtained. THC was dissolved in the alcohol of interest. Subsequently, alcohol and/or water was added to give 0.4% w/v solutions.

[5] = Solubility of THC in water; settings: 20 °C, thermodynamic from solid, stirred 3 days
[6] = Modulated DSC, thermal behavior of THC; format: physicochemical; settings: mDSC thermogram of THC
Description: The thermal behavior of THC was determined by mDSC. A modulation amplitude of ±0.318° C. every 60 sec and a heating rate of 2° C./min was used. During measurement, the sample cell was purged with nitrogen at a flow rate of 35 mL/min. A blob of pure THC was put in the sample cup. After initial cooling the sample was first scanned till 50° C. In this way the blob was able to spread over the entire bottom of the sample pan, thereby increasing the surface available for heat transfer during the second scan. The sample was then cooled until −40° C. and heated to 350° C.

In the case of `OC[C@@H](O)[C@@H](O[C@H]1O[C@H](CO)[C@@H](O)[C@H](O)[C@H]1O)[C@H](O)[C@@H](O)CO` [Maltitol, maltitol], the Glass transition temperature [1] is listed as 44 °C.

In the case of `CCCCCc1cc(O)c2c(c1)OC(C)(C)[C@@H]1CCC(C)=C[C@@H]21` [THC, Δ^9-tetrahydrocannabinol], the Water absorbed [2] is reported as 0.3%, the “Degradation of THC calibration solutions” value ([3]; solutions in methanol, 2 weeks at 4° C.) is reported as “no significant degradation” and the “Degradation of THC by ultrasonic treatment” value ([3]; ten minutes ultrasonic treatment in methanol) is reported as “no degradation”. The “Degradation of THC during extraction” value ([3]; two days of extraction in methanol) was “no significant degradation”, the “% v/v water for a stable solution” value ([4]; EtOH (ethanol)) was ≤ 53% maximum % v/v and the “% v/v water for a stable solution” value ([4]; TBA (t-butanol)) was ≤ 63% maximum % v/v. The “% v/v water for a stable solution” value ([4]; n-PrOH (n-propanol)) was ≤ 62% maximum % v/v, the solubility at 3 days [5] was < 1 µg/mL and the “Onset of endothermic peak (evaporation)” value [6] was 200 °C. The Tg [6] was 10 °C.

In the case of `OC[C@@H](O)[C@@H](O[C@@H]1O[C@H](CO)[C@H](O)[C@H](O)[C@H]1O)[C@H](O)[C@@H](O)CO` [lactitol], the Glass transition temperature [1] is given as 33 °C.

For `OC[C@H]1O[C@@](CO)(O[C@H]2O[C@H](CO)[C@@H](O)[C@H](O)[C@H]2O)[C@@H](O)[C@@H]1O` [sucrose], the Tg [1] is given as 76 °C and the “Tg′” value [1] is given as −39 °C.

In the case of `OC[C@H]1O[C@H](O[C@H]2O[C@H](CO)[C@@H](O)[C@H](O)[C@H]2O)[C@H](O)[C@@H](O)[C@@H]1O` [trehalose], the Tg [1] is given as 120 °C and the “Tg′” value [1] is given as −36 °C.
